Reference: ChEMBL document CHEMBL1152887, “Identification of novel and potent 2-amino benzamide derivatives as allosteric glucokinase activators” (Bioorg Med Chem Lett, 2009)

How the values were obtained:
Hexokinase-4 [1] = molecular target: T1, Hexokinase-4 (Homo sapiens, UniProt P35557)
T1 sequence (P35557 whole entry): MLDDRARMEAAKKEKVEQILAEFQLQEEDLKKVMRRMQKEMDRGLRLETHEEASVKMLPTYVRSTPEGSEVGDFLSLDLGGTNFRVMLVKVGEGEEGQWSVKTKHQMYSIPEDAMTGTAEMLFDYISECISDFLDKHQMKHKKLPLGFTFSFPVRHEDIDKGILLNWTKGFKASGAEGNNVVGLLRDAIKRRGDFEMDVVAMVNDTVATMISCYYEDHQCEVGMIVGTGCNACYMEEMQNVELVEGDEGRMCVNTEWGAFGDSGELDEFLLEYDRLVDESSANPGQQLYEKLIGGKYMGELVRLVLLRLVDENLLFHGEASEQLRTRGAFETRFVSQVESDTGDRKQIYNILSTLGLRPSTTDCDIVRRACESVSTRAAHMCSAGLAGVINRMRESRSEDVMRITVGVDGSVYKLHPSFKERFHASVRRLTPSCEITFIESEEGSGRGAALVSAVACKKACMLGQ

Hexokinase-4 [2] = molecular target: T1, Hexokinase-4; remark: listed apart in the source
[3] = Clearance in Wistar rat at 1 mg/kg, iv and 3 mg/kg, po; format: ADME, organism-based; details: in vivo
[4] = Tmax in Wistar rat at 1 mg/kg, iv and 3 mg/kg, po; format: ADME, organism-based; details: in vivo
Rattus norvegicus = assay: Glucose lowering effect in po dosed Wistar rat assessed as decrease in plasma glucose level administered 30 mins before glucose challenge by OGTT; format: functional, organism-based
[5] = Oral bioavailability in Wistar rat at 3 mg/kg; format: ADME, organism-based; details: in vivo
[6] = Half life in Wistar rat at 1 mg/kg, iv; format: ADME, organism-based; parameters: dose 1 mg/kg, route intravenous; details: in vivo
[7] = Cmax in Wistar rat at 1 mg/kg, iv and 3 mg/kg, po; format: ADME, organism-based; details: in vivo
[8] = Volume of distribution in Wistar rat at 1 mg/kg, iv and 3 mg/kg, po; format: ADME, organism-based; details: in vivo

SMILES | EC50 (Hexokinase-4 [1]) [nM] | EC50 (Hexokinase-4 [2]) [nM] | further results
Cc1csc(NC(=O)c2cc(Sc3nccn3C)ccc2N)n1 | 100 | 230 | 
Cc1csc(NC(=O)c2cc(Sc3nncn3C)ccc2N)n1 |  |  | clearance [3]: 14.3 mL/min/kg; Tmax [4]: 30 min; Activity (Rattus norvegicus): Dose-dependent effect; bioavailability [5]: 100%; half-life [6]: 54 min; Cmax [7]: 8.5 µM; Vd [8]: 0.4 L/kg
Cc1cnc(NC(=O)c2cc(Sc3nncn3C)ccc2N)s1 | 110 | 330 | 
Nc1ccc(Cl)cc1C(=O)Nc1nccs1 | 2600 | 11000 | 
Cn1cnnc1Sc1ccc(N)c(C(=O)Nc2ncns2)c1 | 120 | 490 | 
Cn1cnnc1Sc1ccc(N)c(C(=O)Nc2cccnc2)c1 | > 10000 | > 10000 | 
CCSc1ccc(N)c(C(=O)Nc2nc(C)cs2)c1 | 180 | 780 | 
Cc1nsc(NC(=O)c2cc(Sc3nncn3C)ccc2N)n1 | 180 | 640 | 
Cc1csc(NC(=O)c2cc(Oc3ccccc3S(C)(=O)=O)ccc2N)n1 | 130 | 510 | 
Cc1csc(NC(=O)c2cc(Sc3ccccn3)ccc2N)n1 | 220 | 1200 | 
Cc1csc(NC(=O)c2cc(Sc3nncn3C)ccc2[N+](=O)[O-])n1 | > 10000 | > 10000 | 
Cn1cnnc1Sc1ccc(N)c(C(=O)Nc2nccs2)c1 | 130 | 350 | 
Cc1csc(NC(=O)c2ccc(Cl)cc2N)n1 | > 30000 | > 30000 | 
Cn1cnnc1Sc1ccc(N)c(C(=O)Nc2ccncc2)c1 | > 10000 | > 10000 | 
Nc1ccccc1C(=O)Nc1nccs1 | > 30000 | > 30000 | 
Cc1csc(NC(=O)c2cc(Sc3ccccc3)ccc2N)n1 | 200 | 920 | 
Cn1cnnc1Sc1ccc(N)c(C(=O)Nc2ccccn2)c1 | 230 | 1200 | 
Cc1csc(NC(=O)c2cc(Sc3ncc[nH]3)ccc2N)n1 | 380 | 1600 | 

The next lines start with results.

EC50 (Hexokinase-4 [1]) [nM] | EC50 (Hexokinase-4 [2]) [nM] | SMILES | further results
140 | 600 | Cc1csc(NC(=O)c2cc(Oc3cccc(F)c3)ccc2N)n1 | 
130 | 700 | Cc1csc(NC(=O)c2cc(Oc3ccccc3)ccc2N)n1 | 
100 | 260 | Cc1csc(NC(=O)c2cc(Oc3ccccc3F)ccc2N)n1 | 
1400 | 6500 | Cc1csc(NC(=O)c2cc(Cl)ccc2N)n1 | 
540 | 2400 | Cc1csc(NC(=O)c2cc(Sc3nnc[nH]3)ccc2N)n1 | 
6300 | 17000 | Cc1csc(NC(=O)c2cccc(Cl)c2)n1 | 
420 | 1600 | Cn1cnnc1Sc1ccc(N)c(C(=O)Nc2nc(CO)cs2)c1 | 
930 | 2700 | Cn1cnnc1Sc1ccc(N)c(C(=O)Nc2nc(C(F)(F)F)cs2)c1 | 
400 | 1700 | Cc1csc(NC(=O)c2cc(Oc3ccc(F)cc3)ccc2N)n1 | 
1500 | 7300 | Cc1csc(NC(=O)c2cccc(Sc3nncn3C)c2)n1 | 
120 | 410 | COc1ccccc1Oc1ccc(N)c(C(=O)Nc2nc(C)cs2)c1 | 
> 10000 | > 10000 | Cn1cnnc1Sc1ccc(N)c(C(=O)Nc2ccccc2)c1 | 
1700 | 6800 | CCOc1ccc(N)c(C(=O)Nc2nc(C)cs2)c1 | 
420 | 1100 | CCOC(=O)c1csc(NC(=O)c2cc(Sc3nncn3C)ccc2N)n1 | 
